Measured values: PubChem BioAssay (NCI)
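Grown in 96-well plates, cells were treated for 48 hours with each compound at five concentrations. Insufficient inhibition: endpoint recorded as highest concentration tested. GI50 = concentration required for 50% inhibition of growth. TGI marks complete inhibition of growth.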

Tests used:
Test in all cases: NCI-60 cell line screen, 48 h
786-0 renal = test system: 786-0 renal
A498 renal = test system: A498 renal
A549 NSCLC = test system: A549 NSCLC
ACHN renal = test system: ACHN renal
BT-549 breast = test system: BT-549 breast
CAKI-1 renal = test system: CAKI-1 renal
CCRF-CEM leukemia = test system: CCRF-CEM leukemia
COLO 205 colon = test system: COLO 205 colon
DU-145 prostate = test system: DU-145 prostate
HCC-2998 colon = test system: HCC-2998 colon
HCT-116 colon = test system: HCT-116 colon
HCT-15 colon = test system: HCT-15 colon
HL-60(TB) leukemia = test system: HL-60(TB) leukemia
HOP-62 NSCLC = test system: HOP-62 NSCLC
HOP-92 NSCLC = test system: HOP-92 NSCLC
HS 578T breast = test system: HS 578T breast
HT29 colon = test system: HT29 colon
IGROV1 ovarian = test system: IGROV1 ovarian
K-562 leukemia = test system: K-562 leukemia
KM12 colon = test system: KM12 colon
LOX IMVI melanoma = test system: LOX IMVI melanoma
M14 melanoma = test system: M14 melanoma
MALME-3M melanoma = test system: MALME-3M melanoma
MCF7 breast = test system: MCF7 breast
MDA-MB-231 breast = test system: MDA-MB-231 breast
MDA-MB-435 = test system: MDA-MB-435
MOLT-4 leukemia = test system: MOLT-4 leukemia
NCI-H226 lung = test system: NCI-H226 lung
NCI-H23 lung = test system: NCI-H23 lung

COc1cccc(C(=O)c2sc(Nc3ccc(N4CCN(C(C)C)CC4)cc3)nc2N)c1
GI50 (786-0 renal): 1.61 µM | TGI (786-0 renal): 5.76 µM | GI50 (A498 renal): 2.33 µM | TGI (A498 renal): 8.24 µM | GI50 (A549 NSCLC): 1.22 µM | TGI (A549 NSCLC): 12.5 µM | GI50 (ACHN renal): 0.596 µM | TGI (ACHN renal): > 25 µM | GI50 (BT-549 breast): 3.62 µM | TGI (BT-549 breast): 7.55 µM | GI50 (CAKI-1 renal): 1.01 µM | TGI (CAKI-1 renal): > 8.2 µM | GI50 (CCRF-CEM leukemia): 0.788 µM | TGI (CCRF-CEM leukemia): 4.41 µM | GI50 (COLO 205 colon): 0.694 µM | TGI (COLO 205 colon): 3.53 µM | GI50 (DU-145 prostate): 1.14 µM | TGI (DU-145 prostate): > 25 µM | GI50 (HCC-2998 colon): 3.39 µM | TGI (HCC-2998 colon): 10.7 µM | GI50 (HCT-116 colon): 0.845 µM | TGI (HCT-116 colon): > 25 µM | GI50 (HCT-15 colon): 0.962 µM | TGI (HCT-15 colon): > 25 µM | GI50 (HL-60(TB) leukemia): 0.661 µM | TGI (HL-60(TB) leukemia): 2.73 µM | GI50 (HOP-62 NSCLC): 1.57 µM | TGI (HOP-62 NSCLC): 11.9 µM | GI50 (HOP-92 NSCLC): 0.545 µM | TGI (HOP-92 NSCLC): 4.38 µM | GI50 (HS 578T breast): 2.42 µM | TGI (HS 578T breast): 11.4 µM | GI50 (HT29 colon): 0.997 µM | TGI (HT29 colon): 12.8 µM | GI50 (IGROV1 ovarian): 2.14 µM | TGI (IGROV1 ovarian): > 18.6 µM | GI50 (K-562 leukemia): 3.22 µM | TGI (K-562 leukemia): > 22.1 µM | GI50 (KM12 colon): 0.889 µM | TGI (KM12 colon): 7.13 µM | GI50 (LOX IMVI melanoma): 1.22 µM | TGI (LOX IMVI melanoma): 4.88 µM | GI50 (M14 melanoma): 2.96 µM | TGI (M14 melanoma): 7.12 µM | GI50 (MALME-3M melanoma): 3.02 µM | TGI (MALME-3M melanoma): 7.13 µM | GI50 (MCF7 breast): 0.473 µM | TGI (MCF7 breast): 3.38 µM | GI50 (MDA-MB-231 breast): 1.84 µM | TGI (MDA-MB-231 breast): > 19.8 µM | GI50 (MDA-MB-435): 1.63 µM | TGI (MDA-MB-435): 5.68 µM | GI50 (MOLT-4 leukemia): 0.966 µM | TGI (MOLT-4 leukemia): 13.1 µM | GI50 (NCI-H226 lung): 1.38 µM | TGI (NCI-H226 lung): > 22.8 µM | GI50 (NCI-H23 lung): 1.42 µM
